Experimental data reported in PubChem BioAssay (NCI).
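Interpolation was linear, between the two tested concentrations surrounding the appropriate level; five concentrations were tested over 48 hours in 96-well plates. GI50 is the concentration that inhibits growth by half. TGI: concentration producing complete growth inhibition.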

Key:
Experiment in all cases: NCI-60 cell line screen, 48 h
SK-MEL-28 melanoma = test system: SK-MEL-28 melanoma
SF-295 CNS = test system: SF-295 CNS
HCC-2998 colon = test system: HCC-2998 colon
UACC-62 melanoma = test system: UACC-62 melanoma
PC-3 prostate = test system: PC-3 prostate
RXF 393 renal = test system: RXF 393 renal
NCI/ADR-RES ovarian = test system: NCI/ADR-RES ovarian
RPMI-8226 leukemia = test system: RPMI-8226 leukemia
SK-MEL-5 melanoma = test system: SK-MEL-5 melanoma
BT-549 breast = test system: BT-549 breast
OVCAR-3 ovarian = test system: OVCAR-3 ovarian
SN12C renal = test system: SN12C renal
ACHN renal = test system: ACHN renal
SF-268 CNS = test system: SF-268 CNS
COLO 205 colon = test system: COLO 205 colon
NCI-H23 lung = test system: NCI-H23 lung
HT29 colon = test system: HT29 colon
CAKI-1 renal = test system: CAKI-1 renal
M14 melanoma = test system: M14 melanoma
HL-60(TB) leukemia = test system: HL-60(TB) leukemia
NCI-H460 lung = test system: NCI-H460 lung
UACC-257 melanoma = test system: UACC-257 melanoma
HOP-92 NSCLC = test system: HOP-92 NSCLC
OVCAR-5 ovarian = test system: OVCAR-5 ovarian
OVCAR-4 ovarian = test system: OVCAR-4 ovarian
786-0 renal = test system: 786-0 renal
EKVX NSCLC = test system: EKVX NSCLC
SNB-75 CNS = test system: SNB-75 CNS
U251 CNS = test system: U251 CNS
SNB-19 CNS = test system: SNB-19 CNS
HOP-62 NSCLC = test system: HOP-62 NSCLC
IGROV1 ovarian = test system: IGROV1 ovarian
UO-31 renal = test system: UO-31 renal
SW-620 colon = test system: SW-620 colon
SK-OV-3 ovarian = test system: SK-OV-3 ovarian
MDA-MB-435 = test system: MDA-MB-435
NCI-H522 lung = test system: NCI-H522 lung
A549 NSCLC = test system: A549 NSCLC
LOX IMVI melanoma = test system: LOX IMVI melanoma
A498 renal = test system: A498 renal
K-562 leukemia = test system: K-562 leukemia
MDA-MB-231 breast = test system: MDA-MB-231 breast
CCRF-CEM leukemia = test system: CCRF-CEM leukemia
HCT-116 colon = test system: HCT-116 colon
SK-MEL-2 melanoma = test system: SK-MEL-2 melanoma
NCI-H226 lung = test system: NCI-H226 lung
SR leukemia = test system: SR leukemia
SF-539 CNS = test system: SF-539 CNS
T-47D breast = test system: T-47D breast
HS 578T breast = test system: HS 578T breast
MOLT-4 leukemia = test system: MOLT-4 leukemia
MALME-3M melanoma = test system: MALME-3M melanoma
OVCAR-8 ovarian = test system: OVCAR-8 ovarian
KM12 colon = test system: KM12 colon
DU-145 prostate = test system: DU-145 prostate
TK-10 renal = test system: TK-10 renal
HCT-15 colon = test system: HCT-15 colon
MCF7 breast = test system: MCF7 breast

## CCOC(=O)/C(=C\c1ccc2ccccc2c1)P(=O)(OCC)OCC
SK-MEL-28 melanoma
  GI50: 2.95 µM
  TGI: 8.06 µM
SF-295 CNS
  GI50: 4.76 µM
  TGI: 16.2 µM
HCC-2998 colon
  GI50: 1.96 µM
  TGI: 3.43 µM
UACC-62 melanoma
  GI50: 2.33 µM
  TGI: 8.53 µM
PC-3 prostate
  GI50: 2.84 µM
  TGI: 6.81 µM
RXF 393 renal
  GI50: 1.82 µM
  TGI: 3.46 µM
NCI/ADR-RES ovarian
  GI50: 3.15 µM
  TGI: 11.2 µM
RPMI-8226 leukemia
  GI50: 2.27 µM
  TGI: 6.54 µM
SK-MEL-5 melanoma
  GI50: 2.55 µM
  TGI: 6.5 µM
BT-549 breast
  GI50: 2.3 µM
  TGI: 5.88 µM
OVCAR-3 ovarian
  GI50: 1.95 µM
  TGI: 4.07 µM
SN12C renal
  GI50: 2.85 µM
  TGI: 8.89 µM
ACHN renal
  GI50: 2.31 µM
  TGI: 6.3 µM
SF-268 CNS
  GI50: 3.28 µM
  TGI: 14.3 µM
COLO 205 colon
  GI50: 2.26 µM
  TGI: 4.89 µM
NCI-H23 lung
  GI50: 1.95 µM
  TGI: 4.78 µM
HT29 colon
  GI50: 2.8 µM
  TGI: 8.18 µM
CAKI-1 renal
  GI50: 3.06 µM
  TGI: 12 µM
M14 melanoma
  GI50: 2.18 µM
  TGI: 5.59 µM
HL-60(TB) leukemia
  GI50: 2.15 µM
  TGI: 5.16 µM
NCI-H460 lung
  GI50: 2.71 µM
  TGI: 9.2 µM
UACC-257 melanoma
  GI50: 2.59 µM
  TGI: 7.14 µM
HOP-92 NSCLC
  GI50: 2.44 µM
  TGI: 5.31 µM
OVCAR-5 ovarian
  GI50: 3.95 µM
  TGI: 13.9 µM
OVCAR-4 ovarian
  GI50: 4.16 µM
  TGI: 20.1 µM
786-0 renal
  GI50: 2.26 µM
  TGI: 5.61 µM
EKVX NSCLC
  GI50: 4.28 µM
  TGI: 16 µM
SNB-75 CNS
  GI50: 2.57 µM
  TGI: 14.8 µM
U251 CNS
  GI50: 2.64 µM
  TGI: 7.86 µM
SNB-19 CNS
  GI50: 4.45 µM
  TGI: 18.6 µM
HOP-62 NSCLC
  GI50: 2.61 µM
  TGI: 7.24 µM
IGROV1 ovarian
  GI50: 3 µM
  TGI: 8.94 µM
UO-31 renal
  GI50: 1.72 µM
  TGI: 4.4 µM
SW-620 colon
  GI50: 2.81 µM
  TGI: 10.4 µM
SK-OV-3 ovarian
  GI50: 8.84 µM
  TGI: 20.9 µM
MDA-MB-435
  GI50: 2.92 µM
  TGI: 13.3 µM
NCI-H522 lung
  GI50: 1.52 µM
  TGI: 3.35 µM
A549 NSCLC
  GI50: 3.08 µM
  TGI: 11.6 µM
LOX IMVI melanoma
  GI50: 1.58 µM
  TGI: 3.08 µM
A498 renal
  GI50: 3.73 µM
  TGI: 10.9 µM
K-562 leukemia
  GI50: 2.73 µM
  TGI: 50.8 µM
MDA-MB-231 breast
  GI50: 3.57 µM
  TGI: 13.4 µM
CCRF-CEM leukemia
  GI50: 1.89 µM
  TGI: 6.51 µM
HCT-116 colon
  GI50: 2.22 µM
  TGI: 5.08 µM
SK-MEL-2 melanoma
  GI50: 2.16 µM
  TGI: 5.22 µM
NCI-H226 lung
  GI50: 2.39 µM
  TGI: 5.88 µM
SR leukemia
  GI50: 1.69 µM
  TGI: 8.19 µM
SF-539 CNS
  GI50: 2.29 µM
  TGI: 5.17 µM
T-47D breast
  GI50: 2.55 µM
  TGI: 9.09 µM
HS 578T breast
  GI50: 7.17 µM
  TGI: 75.8 µM
MOLT-4 leukemia
  GI50: 2.16 µM
  TGI: 6.25 µM
MALME-3M melanoma
  GI50: 2.52 µM
  TGI: 7.95 µM
OVCAR-8 ovarian
  GI50: 3.26 µM
  TGI: 13.2 µM
KM12 colon
  GI50: 3.08 µM
  TGI: 10.9 µM
DU-145 prostate
  GI50: 2.63 µM
  TGI: 9.32 µM
TK-10 renal
  GI50: 2.85 µM
  TGI: 8.97 µM
HCT-15 colon
  GI50: 1.7 µM
  TGI: 4.45 µM
MCF7 breast
  GI50: 2.14 µM
  TGI: 7.12 µM
